Values joined by “and” are separate entries in the source; they are usually repeats but may differ in a detail not shown here. Equal values may be shown once. Inconclusive results and toxic doses are left out.
System: P388 leukemia ip, CD2F1 mice, survival T/C
Assay: NCI In Vivo Anticancer Drug Screen. Data for tumor model P388 Leukemia (intraperitoneal) in CD2F1 (CDF1) mice
Details: endpoint: median survival time, higher = longer survival
Procedure, shortened: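 Mice carrying the transplanted tumor received test compound or vehicle. Survival was recorded in each group, and the value is the treated-group measurement divided by that of the vehicle-treated control group.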

[1] = dose: 100.0 mg/kg/injection, schedule: Q01DX001 (ip), vehicle: Klucel (hydroxypropylcellulose) (HPC)
[2] = dose: 6.25 mg/kg/injection, schedule: Q01DX005 (ip), vehicle: saline with Tween-80
[3] = dose: 12.5 mg/kg/injection, schedule: Q01DX005 (ip), vehicle: saline with Tween-80
[4] = dose: 25.0 mg/kg/injection, schedule: Q01DX005 (ip), vehicle: saline with Tween-80
[5] = dose: 25.0 mg/kg/injection, schedule: Q04DX003 (ip), vehicle: saline with Tween-80
[6] = dose: 50.0 mg/kg/injection, schedule: Q04DX003 (ip), vehicle: saline with Tween-80
[7] = dose: 100.0 mg/kg/injection, schedule: Q04DX003 (ip), vehicle: saline with Tween-80
[8] = dose: 12.5 mg/kg/injection, schedule: Q01DX009 (ip), vehicle: saline with Tween-80
[9] = dose: 25.0 mg/kg/injection, schedule: Q01DX009 (ip), vehicle: saline with Tween-80
[10] = dose: 50.0 mg/kg/injection, schedule: Q01DX009 (ip), vehicle: saline with Tween-80
[11] = dose: 100.0 mg/kg/injection, schedule: Q01DX009 (ip), vehicle: saline with Tween-80
[12] = dose: 50.0 mg/kg/injection, schedule: Q01DX005 (ip), vehicle: saline with Tween-80
[13] = dose: 100.0 mg/kg/injection, schedule: Q01DX005 (ip), vehicle: saline with Tween-80
[14] = dose: 200.0 mg/kg/injection, schedule: Q01DX005 (ip), vehicle: saline with Tween-80
[15] = dose: 12.5 mg/kg/injection, schedule: Q01DX009 (ip), vehicle: saline
[16] = dose: 25.0 mg/kg/injection, schedule: Q01DX009 (ip), vehicle: saline
[17] = dose: 200.0 mg/kg/injection, schedule: Q01DX001 (ip), vehicle: Klucel (hydroxypropylcellulose) (HPC)
[18] = dose: 25.0 mg/kg/injection, schedule: Q01DX005 (ip), vehicle: Klucel (hydroxypropylcellulose) (HPC)
[19] = dose: 50.0 mg/kg/injection, schedule: Q01DX005 (ip), vehicle: Klucel (hydroxypropylcellulose) (HPC)
[20] = dose: 50.0 mg/kg/injection, schedule: Q01DX009 (ip), vehicle: Klucel (hydroxypropylcellulose) (HPC)
[21] = dose: 100.0 mg/kg/injection, schedule: Q01DX009 (ip), vehicle: Klucel (hydroxypropylcellulose) (HPC)
[22] = dose: 100.0 mg/kg/injection, schedule: Q04DX002 (ip), vehicle: Klucel (hydroxypropylcellulose) (HPC)
[23] = dose: 200.0 mg/kg/injection, schedule: Q04DX002 (ip), vehicle: Klucel (hydroxypropylcellulose) (HPC)

O=P1(Oc2ccccc2)NC2CCCCC2N1 (configuration not stated)
T/C (dose: 12.5 mg/kg/injection, schedule: Q01DX005 (ip), vehicle: Klucel + Tween-80): 95 % of control | T/C (dose: 25.0 mg/kg/injection, schedule: Q01DX005 (ip), vehicle: Klucel + Tween-80): 97 % of control | T/C (dose: 50.0 mg/kg/injection, schedule: Q01DX005 (ip), vehicle: Klucel + Tween-80): 95 % of control | T/C [1]: 94 % of control

NC(=O)c1cncn1C1OCC(O)C(O)C1O (configuration not stated)
T/C (dose: 60.0 mg/kg/injection, schedule: Q01DX005 (ip), vehicle: saline): 96 % of control | T/C (dose: 120.0 mg/kg/injection, schedule: Q01DX005 (ip), vehicle: saline): 94 % of control | T/C (dose: 240.0 mg/kg/injection, schedule: Q01DX005 (ip), vehicle: saline): 91 % of control

O=C1CC2C(CC3OC(=O)C4C3C23COC4(O)C(O)C3)c2occc21 (configuration not stated)
T/C (dose: 100.0 mg/kg/injection, schedule: Q01DX001 (ip), vehicle: saline with Tween-80): 104 % of control | T/C (dose: 200.0 mg/kg/injection, schedule: Q01DX001 (ip), vehicle: saline with Tween-80): 101 % of control

COc1ccc(C(=O)O[C@H]2CC[C@@]3(C)[C@@H]4CC[C@H]5[C@]6(O)C[C@H](O)[C@@]7(O)[C@@H](CN8C[C@@H](C)CC[C@H]8[C@@]7(C)O)[C@]6(O)C[C@@]53OC24O)cc1OC
T/C (dose: 3.12 mg/kg/injection, schedule: Q01DX005 (ip), vehicle: saline): 95 % of control | T/C (dose: 6.25 mg/kg/injection, schedule: Q01DX005 (ip), vehicle: saline): 95 % of control | T/C (dose: 12.5 mg/kg/injection, schedule: Q01DX005 (ip), vehicle: saline): 97 % of control

C/C(=N\Nc1ccccn1)c1ccccn1
T/C [2]: 104 % of control | T/C [3]: 100 % of control | T/C [4]: 101 % of control

c1ccc(CN2CCC(N3CNc4ccccc43)CC2)cc1
T/C [5]: 109 % of control | T/C [6]: 114 % of control | T/C [7]: 88 % of control

CN1C2CCC1CC(OC(=O)C(CO)c1ccccc1)C2 (configuration not stated)
T/C [8]: 105 % of control and 95 % of control | T/C [9]: 100 % of control and 111 % of control | T/C [10]: 103 % of control and 92 % of control | T/C [11]: 100 % of control and 95 % of control | T/C (dose: 150.0 mg/kg/injection, schedule: Q01DX009 (ip), vehicle: saline with Tween-80): 112 % of control and 95 % of control

CC(N[Si](c1ccccc1)(c1ccccc1)C(C)(C)C)c1ccccc1 (configuration not stated)
T/C [12]: 98 % of control | T/C [13]: 97 % of control | T/C [14]: 97 % of control

Cc1cnc(Cl)nc1Sc1nc(N)nc2nc[nH]c12
T/C (dose: 4.0 mg/kg/injection, schedule: Q01DX009 (ip), vehicle: saline with Tween-80): 150 % of control | T/C [8]: 122 % of control | T/C [5]: 154 % of control | T/C [6]: 159 % of control | T/C [7]: 100 % of control

COc1c(OC2OC(CO)C(O)C(O)C2O)cc2occ(-c3ccc4c(c3)OCO4)c(=O)c2c1O (configuration not stated)
T/C (dose: 4.0 mg/kg/injection, schedule: Q01DX005 (ip), vehicle: saline with Tween-80): 94 % of control | T/C (dose: 8.0 mg/kg/injection, schedule: Q01DX005 (ip), vehicle: saline with Tween-80): 101 % of control | T/C (dose: 16.0 mg/kg/injection, schedule: Q01DX005 (ip), vehicle: saline with Tween-80): 101 % of control | T/C (dose: 32.0 mg/kg/injection, schedule: Q01DX005 (ip), vehicle: saline with Tween-80): 95 % of control

COc1ccc(-c2nnc(-c3ccc(Cl)cc3)c(=O)[nH]2)cc1
T/C [2]: 91 % of control | T/C [3]: 90 % of control

C=CCN(CC=C)C(N)=Nc1ccc(Cl)cc1
T/C (dose: 6.25 mg/kg/injection, schedule: Q01DX009 (ip), vehicle: saline): 100 % of control | T/C [15]: 94 % of control | T/C [16]: 97 % of control

Cc1nc2c([N+](=O)[O-])c(NCc3ccccc3)c([N+](=O)[O-])cc2[nH]1
T/C [7]: 97 % of control | T/C (dose: 200.0 mg/kg/injection, schedule: Q04DX003 (ip), vehicle: saline with Tween-80): 95 % of control | T/C (dose: 400.0 mg/kg/injection, schedule: Q04DX003 (ip), vehicle: saline with Tween-80): 101 % of control

Fc1ccccc1C(Nc1cnccn1)Nc1cnccn1
T/C [3]: 96 % of control | T/C [4]: 102 % of control | T/C [12]: 102 % of control and 109 % of control | T/C [13]: 109 % of control | T/C [14]: 111 % of control

Cc1ccc(NSC(Cl)(Cl)Cl)cc1
T/C [15]: 100 % of control | T/C (dose: 12.5 mg/kg/injection, schedule: Q01DX009 (ip), vehicle: suspension in saline): 100 % of control | T/C [16]: 100 % of control | T/C (dose: 25.0 mg/kg/injection, schedule: Q01DX009 (ip), vehicle: suspension in saline): 100 % of control | T/C (dose: 50.0 mg/kg/injection, schedule: Q01DX009 (ip), vehicle: saline): 104 % of control and 123 % of control | T/C (dose: 50.0 mg/kg/injection, schedule: Q01DX009 (ip), vehicle: suspension in saline): 97 % of control | T/C (dose: 100.0 mg/kg/injection, schedule: Q01DX009 (ip), vehicle: suspension in saline): 87 % of control

O=C(CCc1cc2[nH]c1c(-c1ccccc1)c1nc(c(-c3ccccc3)c3ccc([nH]3)c(-c3ccccc3)c3nc(c2-c2ccccc2)C=C3)C=C1)NCCCn1ccnc1
T/C (dose: 50.0 mg/kg/injection, schedule: Q01DX001 (ip), vehicle: Klucel (hydroxypropylcellulose) (HPC)): 99 % of control | T/C [1]: 91 % of control | T/C [17]: 91 % of control | T/C (dose: 400.0 mg/kg/injection, schedule: Q01DX001 (ip), vehicle: Klucel (hydroxypropylcellulose) (HPC)): 96 % of control

COc1ccc(-n2nc3c(c2-c2cccnc2)CCCc2ccccc2-3)cc1
T/C [12]: 95 % of control | T/C [13]: 106 % of control | T/C [14]: 101 % of control

Cc1ccc(C2=C3CCCCC3c3cc(C)ccc32)cc1 (configuration not stated)
T/C [18]: 91 % of control | T/C [19]: 97 % of control | T/C (dose: 100.0 mg/kg/injection, schedule: Q01DX005 (ip), vehicle: Klucel (hydroxypropylcellulose) (HPC)): 90 % of control | T/C (dose: 200.0 mg/kg/injection, schedule: Q01DX005 (ip), vehicle: Klucel (hydroxypropylcellulose) (HPC)): 90 % of control

O=c1[nH]c(=O)n(Cl)c(=O)n1Cl
T/C [20]: 116 % of control | T/C [21]: 99 % of control

CCCCCCCCCCCCCCCCCCOC(=O)C1CCCN1 (configuration not stated)
T/C [22]: 101 % of control | T/C [23]: 99 % of control | T/C (dose: 400.0 mg/kg/injection, schedule: Q04DX002 (ip), vehicle: Klucel (hydroxypropylcellulose) (HPC)): 94 % of control

Cc1ccc(NC(=O)Oc2ccc(F)cc2Cl)c([N+](=O)[O-])c1
T/C [10]: 112 % of control | T/C [11]: 118 % of control

NC1=C(Br)C(=O)c2[nH]c(=O)[nH]c(=O)c2C1=O
T/C (dose: 6.25 mg/kg/injection, schedule: Q01DX005 (ip), vehicle: Klucel (hydroxypropylcellulose) (HPC)): 98 % of control | T/C (dose: 12.5 mg/kg/injection, schedule: Q01DX005 (ip), vehicle: Klucel (hydroxypropylcellulose) (HPC)): 100 % of control | T/C [18]: 102 % of control | T/C [19]: 100 % of control

O=C(N/N=C/c1cc(Br)ccc1[O-])c1ccccc1O.O=C(N/N=C/c1cc(Br)ccc1[O-])c1ccccc1O.[Co+2]
T/C [22]: 90 % of control | T/C [23]: 90 % of control

Cc1ccc(C(=O)[O][Hg][CH2]C2COC([CH2][Hg][O]C(=O)c3ccc(C)cc3)CO2)cc1 (configuration not stated)
T/C [9]: 116 % of control | T/C [10]: 113 % of control | T/C [11]: 100 % of control

c1ccc2c(c1)CCNC2C1NCCc2ccccc21 (configuration not stated)
T/C (dose: 12.5 mg/kg/injection, schedule: Q01DX009 (ip), vehicle: Klucel (hydroxypropylcellulose) (HPC)): 107 % of control | T/C (dose: 25.0 mg/kg/injection, schedule: Q01DX009 (ip), vehicle: Klucel (hydroxypropylcellulose) (HPC)): 100 % of control | T/C [20]: 104 % of control | T/C [1]: 109 % of control | T/C [21]: 105 % of control and 91 % of control | T/C [17]: 107 % of control

CC(C)(C)C1=CP(=O)(c2ccccc2)C=C(C(C)(C)C)N1
T/C [12]: 106 % of control | T/C [13]: 108 % of control | T/C [14]: 98 % of control

NS(=O)(=O)c1ccc(CN2C(=O)c3ccccc3C2=O)cc1
T/C (dose: 100.0 mg/kg/injection, schedule: Q04DX002 (ip), vehicle: saline with Tween-80): 110 % of control
